Experimental data taken from PMC9520775, “Everolimus pharmacokinetics and exposure-response relationship in Japanese patients with advanced breast cancer” (Frontiers in Pharmacology, 2022).

Test system: patients with advanced or metastatic breast cancer
Assay: Adverse events (CTCAE Ver. 4.0), dose-limiting toxicities and dose reductions under everolimus
Format: in vivo, human
Description: This was a prospective, observational PK study. Patients with advanced or metastatic breast cancer who received everolimus between November 2015 and November 2018 at Kobe City Medical Center General Hospital were enrolled in this study. The main inclusion criteria included the following: age ≥20 years; Eastern Cooperative Oncology Group (ECOG) performance status (PS): 0 or 1; and adequate bone marrow, liver, and renal function. The main exclusion criteria were interstitial pneumonia or pulmonary fibrosis, HBsAg positive, and psychiatric or psychological symptoms that made it difficult to participate in the study. Every participant provided written informed consent. This study was conducted in accordance with the Declaration of Helsinki and approved by the Institutional Review Board, under Approval Number zn151103.
Based on the physician’s decision, the patients were prescribed a starting dose of either 5 or 10 mg everolimus once daily. The everolimus dose was reduced when a patient experienced adverse events higher than grade 2. The first reduced dose was 5 mg once daily, followed by the second reduced dose of 2.5 mg once daily or 5 mg every alternate day. In addition, everolimus doses could be increased if adverse events improved to grade 1 or less, or deemed inefficacious. The adverse events were evaluated weekly for the first month and then every 1–4 weeks, according to the Common Terminology Criteria for Adverse Events Ver. 4.0.
Statistical differences in everolimus trough concentrations, doses and body weights between patient cohorts were assessed using the Mann–Whitney test. Progression-free survival (PFS) was assessed using the Kaplan-Meier method and the log-rank test. All statistical analyses were performed using GraphPad Prism version 7.03 (San Diego, CA). p < 0.05 was considered statistically significant.

[1] = All patients (n = 18), Grade All
[2] = Initial dose: 5 mg/day (n = 6), Grade 1
[3] = Initial dose: 5 mg/day (n = 6), Grade 2
[4] = Initial dose: 5 mg/day (n = 6), Grade 3
[5] = Initial dose: 5 mg/day (n = 6), Grade 4
[6] = Initial dose: 5 mg/day (n = 6), Grade All
[7] = Initial dose: 10 mg/day (n = 12), Grade 1
[8] = Initial dose: 10 mg/day (n = 12), Grade 2
[9] = Initial dose: 10 mg/day (n = 12), Grade 3
[10] = Initial dose: 10 mg/day (n = 12), Grade 4
[11] = Initial dose: 10 mg/day (n = 12), Grade All

## CO[C@H]1C[C@@H]2CC[C@@H](C)[C@@](O)(O2)C(=O)C(=O)N2CCCC[C@H]2C(=O)O[C@H]([C@H](C)C[C@@H]2CC[C@@H](OCCO)[C@H](OC)C2)CC(=O)[C@H](C)/C=C(\C)[C@@H](O)[C@@H](OC)C(=O)[C@H](C)C[C@H](C)/C=C/C=C/C=C/1C [everolimus]
All patients (n = 18), Grade 1
  Adverse event, n: Diarrhea: 1
  Adverse event, n: Dysgeusia: 4
  Adverse event, n: Epistaxis: 6
  Adverse event, n: High cholesterol: 9
  Adverse event, n: Hyperglycemia: 4
  Adverse event, n: Hypertriglyceridemia: 8
  Adverse event, n: Hypokalemia: 6
  Adverse event, n: Interstitial lung disease: 3
  Adverse event, n: Malaise: 6
  Adverse event, n: Mucositis oral: 7
  Adverse event, n: Neutrophil count decreased: 2
  Adverse event, n: Platelet decrease: 9
  Adverse event, n: Rash: 11
All patients (n = 18), Grade 2
  Adverse event, n: Diarrhea: 4
  Adverse event, n: Dysgeusia: 1
  Adverse event, n: Epistaxis: 0
  Adverse event, n: High cholesterol: 2
  Adverse event, n: Hyperglycemia: 1
  Adverse event, n: Hypertriglyceridemia: 4
  Adverse event, n: Hypokalemia: 1
  Adverse event, n: Interstitial lung disease: 2
  Adverse event, n: Malaise: 1
  Adverse event, n: Mucositis oral: 10
  Adverse event, n: Neutrophil count decreased: 3
  Adverse event, n: Platelet decrease: 0
  Adverse event, n: Rash: 3
All patients (n = 18), Grade 3
  Adverse event, n: Diarrhea: 0
  Adverse event, n: Dysgeusia: 0
  Adverse event, n: Epistaxis: 0
  Adverse event, n: High cholesterol: 0
  Adverse event, n: Hyperglycemia: 0
  Adverse event, n: Hypertriglyceridemia: 0
  Adverse event, n: Hypokalemia: 1
  Adverse event, n: Interstitial lung disease: 0
  Adverse event, n: Malaise: 0
  Adverse event, n: Mucositis oral: 0
  Adverse event, n: Neutrophil count decreased: 1
  Adverse event, n: Platelet decrease: 0
  Adverse event, n: Rash: 0
All patients (n = 18), Grade 4
  Adverse event, n: Diarrhea: 0
  Adverse event, n: Dysgeusia: 0
  Adverse event, n: Epistaxis: 0
  Adverse event, n: High cholesterol: 0
  Adverse event, n: Hyperglycemia: 0
  Adverse event, n: Hypertriglyceridemia: 0
  Adverse event, n: Hypokalemia: 1
  Adverse event, n: Interstitial lung disease: 0
  Adverse event, n: Malaise: 0
  Adverse event, n: Mucositis oral: 0
  Adverse event, n: Neutrophil count decreased: 0
  Adverse event, n: Platelet decrease: 0
  Adverse event, n: Rash: 0
[1]
  Adverse event, n: Diarrhea: 5
  Adverse event, n: Dysgeusia: 5
  Adverse event, n: Epistaxis: 6
  Adverse event, n: High cholesterol: 11
  Adverse event, n: Hyperglycemia: 5
  Adverse event, n: Hypertriglyceridemia: 12
  Adverse event, n: Hypokalemia: 9
  Adverse event, n: Interstitial lung disease: 5
  Adverse event, n: Malaise: 7
  Adverse event, n: Mucositis oral: 17
  Adverse event, n: Neutrophil count decreased: 6
  Adverse event, n: Platelet decrease: 9
  Adverse event, n: Rash: 14
DLT (n = 13) vs no DLT (n = 18), Mann-Whitney test, p = 0.0058
  trough concentrations at DLTs compared with trough concentrations in the absence of DLTs: significantly higher
Dose 5 mg, BW 36.1–40.0 kg
  number of patients, DLTs (−): 1
Dose 5 mg, BW 40.1–45.0 kg
  number of patients, DLTs (−): 1
Dose 5 mg, BW 45.1–50.0 kg
  number of patients, DLTs (+): 1
Dose 5 mg, BW 50.1–55.0 kg
  number of patients, DLTs (+): 1
  number of patients, DLTs (−): 3
Dose 5 mg, BW 55.1–60.0 kg
  number of patients, DLTs (+): 3
  number of patients, DLTs (−): 2
Dose 10 mg, BW 36.1–40.0 kg
  number of patients, DLTs (+): 1
Dose 10 mg, BW 40.1–45.0 kg
  number of patients, DLTs (+): 1
  number of patients, DLTs (−): 1
Dose 10 mg, BW 45.1–50.0 kg
  number of patients, DLTs (+): 2
  number of patients, DLTs (−): 1
Dose 10 mg, BW 50.1–55.0 kg
  number of patients, DLTs (+): 2
Dose 10 mg, BW 55.1–60.0 kg
  number of patients, DLTs (+): 2
Dose 10 mg, BW 60.1–65.0 kg
  number of patients, DLTs (−): 1
Dose 10 mg, BW 66.1–70.0 kg
  number of patients, DLTs (−): 1
[2]
  Adverse event, n: Diarrhea: 0
  Adverse event, n: Dysgeusia: 1
  Adverse event, n: Epistaxis: 2
  Adverse event, n: High cholesterol: 4
  Adverse event, n: Hyperglycemia: 2
  Adverse event, n: Hypertriglyceridemia: 2
  Adverse event, n: Hypokalemia: 2
  Adverse event, n: Interstitial lung disease: 0
  Adverse event, n: Malaise: 1
  Adverse event, n: Mucositis oral: 2
  Adverse event, n: Neutrophil count decreased: 0
  Adverse event, n: Platelet decrease: 2
  Adverse event, n: Rash: 3
[3]
  Adverse event, n: Diarrhea: 1
  Adverse event, n: Dysgeusia: 1
  Adverse event, n: Epistaxis: 0
  Adverse event, n: High cholesterol: 0
  Adverse event, n: Hyperglycemia: 0
  Adverse event, n: Hypertriglyceridemia: 1
  Adverse event, n: Hypokalemia: 0
  Adverse event, n: Interstitial lung disease: 1
  Adverse event, n: Malaise: 1
  Adverse event, n: Mucositis oral: 4
  Adverse event, n: Neutrophil count decreased: 0
  Adverse event, n: Platelet decrease: 0
  Adverse event, n: Rash: 1
[4]
  Adverse event, n: Diarrhea: 0
  Adverse event, n: Dysgeusia: 0
  Adverse event, n: Epistaxis: 0
  Adverse event, n: High cholesterol: 0
  Adverse event, n: Hyperglycemia: 0
  Adverse event, n: Hypertriglyceridemia: 0
  Adverse event, n: Hypokalemia: 1
  Adverse event, n: Interstitial lung disease: 0
  Adverse event, n: Malaise: 0
  Adverse event, n: Mucositis oral: 0
  Adverse event, n: Neutrophil count decreased: 0
  Adverse event, n: Platelet decrease: 0
  Adverse event, n: Rash: 0
[5]
  Adverse event, n: Diarrhea: 0
  Adverse event, n: Dysgeusia: 0
  Adverse event, n: Epistaxis: 0
  Adverse event, n: High cholesterol: 0
  Adverse event, n: Hyperglycemia: 0
  Adverse event, n: Hypertriglyceridemia: 0
  Adverse event, n: Hypokalemia: 0
  Adverse event, n: Interstitial lung disease: 0
  Adverse event, n: Malaise: 0
  Adverse event, n: Mucositis oral: 0
  Adverse event, n: Neutrophil count decreased: 0
  Adverse event, n: Platelet decrease: 0
  Adverse event, n: Rash: 0
[6]
  Adverse event, n: Diarrhea: 1
  Adverse event, n: Dysgeusia: 2
  Adverse event, n: Epistaxis: 2
  Adverse event, n: High cholesterol: 4
  Adverse event, n: Hyperglycemia: 2
  Adverse event, n: Hypertriglyceridemia: 3
  Adverse event, n: Hypokalemia: 3
  Adverse event, n: Interstitial lung disease: 1
  Adverse event, n: Malaise: 2
  Adverse event, n: Mucositis oral: 6
  Adverse event, n: Neutrophil count decreased: 0
  Adverse event, n: Platelet decrease: 2
  Adverse event, n: Rash: 4
[7]
  Adverse event, n: Diarrhea: 1
  Adverse event, n: Dysgeusia: 3
  Adverse event, n: Epistaxis: 4
  Adverse event, n: High cholesterol: 5
  Adverse event, n: Hyperglycemia: 2
  Adverse event, n: Hypertriglyceridemia: 6
  Adverse event, n: Hypokalemia: 4
  Adverse event, n: Interstitial lung disease: 3
  Adverse event, n: Malaise: 5
  Adverse event, n: Mucositis oral: 5
  Adverse event, n: Neutrophil count decreased: 2
  Adverse event, n: Platelet decrease: 7
  Adverse event, n: Rash: 8
[8]
  Adverse event, n: Diarrhea: 3
  Adverse event, n: Dysgeusia: 0
  Adverse event, n: Epistaxis: 0
  Adverse event, n: High cholesterol: 2
  Adverse event, n: Hyperglycemia: 1
  Adverse event, n: Hypertriglyceridemia: 3
  Adverse event, n: Hypokalemia: 1
  Adverse event, n: Interstitial lung disease: 1
  Adverse event, n: Malaise: 0
  Adverse event, n: Mucositis oral: 6
  Adverse event, n: Neutrophil count decreased: 3
  Adverse event, n: Platelet decrease: 0
  Adverse event, n: Rash: 2
[9]
  Adverse event, n: Diarrhea: 0
  Adverse event, n: Dysgeusia: 0
  Adverse event, n: Epistaxis: 0
  Adverse event, n: High cholesterol: 0
  Adverse event, n: Hyperglycemia: 0
  Adverse event, n: Hypertriglyceridemia: 0
  Adverse event, n: Hypokalemia: 0
  Adverse event, n: Interstitial lung disease: 0
  Adverse event, n: Malaise: 0
  Adverse event, n: Mucositis oral: 0
  Adverse event, n: Neutrophil count decreased: 1
  Adverse event, n: Platelet decrease: 0
  Adverse event, n: Rash: 0
[10]
  Adverse event, n: Diarrhea: 0
  Adverse event, n: Dysgeusia: 0
  Adverse event, n: Epistaxis: 0
  Adverse event, n: High cholesterol: 0
  Adverse event, n: Hyperglycemia: 0
  Adverse event, n: Hypertriglyceridemia: 0
  Adverse event, n: Hypokalemia: 1
  Adverse event, n: Interstitial lung disease: 0
  Adverse event, n: Malaise: 0
  Adverse event, n: Mucositis oral: 0
  Adverse event, n: Neutrophil count decreased: 0
  Adverse event, n: Platelet decrease: 0
  Adverse event, n: Rash: 0
[11]
  Adverse event, n: Diarrhea: 4
  Adverse event, n: Dysgeusia: 3
  Adverse event, n: Epistaxis: 4
  Adverse event, n: High cholesterol: 7
  Adverse event, n: Hyperglycemia: 3
  Adverse event, n: Hypertriglyceridemia: 9
  Adverse event, n: Hypokalemia: 6
  Adverse event, n: Interstitial lung disease: 4
  Adverse event, n: Malaise: 5
  Adverse event, n: Mucositis oral: 11
  Adverse event, n: Neutrophil count decreased: 6
  Adverse event, n: Platelet decrease: 7
  Adverse event, n: Rash: 10
All patients, n = 18
  stomatitis, incidence, all grade: 94%
From the starting dose of 10 mg (7/18)
  proportion of all patients who required a second dose reduction: 39%
Of 18 patients, during the 10 months of the study period
  number of patients with dose-limiting toxicities (DLTs): 13
Starting dose of 5 mg (5/6)
  proportion of patients who required dose reduction owing to adverse drug reactions: 83%
Three patients, clarithromycin 200 mg twice daily for 7 days (CYP3A4 inhibitor) during everolimus treatment
  DLT while being treated with clarithromycin: no DLT
